US20100056524A1, “Compound” (priority 2008, published 2010)
Structures can show the parent of a compound that is named as a salt.

Each compound was assayed against T1, TBK1 (Homo sapiens, UniProt Q9UHD2) (assay: TBK1 protein kinase assay ([γ-33P]ATP, P81 filterplates)). Conditions: 50 μM ATP; read-out: Potency (TBK1 IC50 potency score).
T1 construct: All protein kinases were of human origin and encoded full length proteins, unless indicated otherwise; His6; made in house; host or cells: insect Sf21 cells
T1 sequence (Q9UHD2 1-729): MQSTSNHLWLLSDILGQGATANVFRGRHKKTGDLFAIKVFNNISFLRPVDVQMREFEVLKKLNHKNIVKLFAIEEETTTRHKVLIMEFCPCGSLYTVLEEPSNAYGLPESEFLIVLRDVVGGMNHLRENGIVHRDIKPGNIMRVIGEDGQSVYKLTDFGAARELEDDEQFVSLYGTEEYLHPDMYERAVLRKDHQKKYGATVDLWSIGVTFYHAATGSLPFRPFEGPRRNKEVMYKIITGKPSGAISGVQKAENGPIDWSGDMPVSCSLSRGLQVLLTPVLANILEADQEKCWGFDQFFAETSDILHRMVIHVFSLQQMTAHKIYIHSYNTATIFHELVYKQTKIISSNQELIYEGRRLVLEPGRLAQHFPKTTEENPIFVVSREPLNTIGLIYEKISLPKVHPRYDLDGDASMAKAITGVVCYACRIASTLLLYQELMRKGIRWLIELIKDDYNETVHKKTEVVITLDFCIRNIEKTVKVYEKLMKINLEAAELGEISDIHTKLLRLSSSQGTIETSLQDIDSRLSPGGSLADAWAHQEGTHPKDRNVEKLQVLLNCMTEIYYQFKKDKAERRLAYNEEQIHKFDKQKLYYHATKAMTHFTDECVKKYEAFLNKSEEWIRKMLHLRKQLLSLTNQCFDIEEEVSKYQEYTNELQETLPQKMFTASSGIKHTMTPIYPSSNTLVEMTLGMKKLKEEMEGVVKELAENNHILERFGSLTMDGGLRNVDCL
Type: biochemical
Description: All protein kinases were of human origin and encoded full length proteins, unless indicated otherwise. They were either expressed as glutathione S-transferase (GST) fusion proteins in Escherichia Coli or as hexahistidine (His6)-tagged proteins in insect Sf21 cells. GST fusion proteins were purified by affinity chromatography on glutathione-Sepharose, and His6-tagged proteins on nickel/nitriloacetate-agarose. The procedures for expressing some of the protein kinases used herein have been detailed previously.^8,9 The following sections outline the DNA vectors synthesised and the procedures used to express and purifying protein kinases that have not been reported previously.
The following kinases were expressed in Sf21 cells: Aurora B and Aurora C, extra-cellular signal-regulated kinase 8 (ERK8), microtubule affinity regulating kinase 3 (MARK3), protein kinase Bα[118-480][S473D], protein kinase Bβ (PKBβ[120-481][S474D], 3-phosphoinositide-dependent protein kinase-1 [52-556]
Assays were performed for 30 min using Multidrop Micro reagent dispensers (Thermo Electron Corporation, Waltham, Mass. 02454, USA) in a 96-well format. The concentration of magnesium acetate in the assays was 10 mM and the [γ-33P] ATP (800 cpm/pmol) was used at 5, 20 or 50 μM as indicated, in order to be at or below the Km for ATP for each enzyme. Protein kinases assayed at 5 μM ATP were: —ERK1, ERK8, PKBα, MARK3, Aurora C. Protein kinases assayed at 20 μM ATP were: —JNK1, PDK1, CHK1, CHK2, CDK2 and Aurora B. Protein kinases assayed at 50 μM ATP were: —MNK2, IKKepsilon and TBK1.
The assays were initiated with MgATP, stopped by addition of 5 μl of 0.5 M orthophosphoric acid and spotted on to P81 filterplates using a unifilter harvester (PerkinElmer, Boston, Mass. 02118, USA). The IC50 values of inhibitors were determined after carrying out assays at 10 different concentrations of each compound.
ERK1 and ERK8 were both assayed against myelin basic protein (MBP, 0.33 mg/ml). MARK3 was assayed against the peptide […] (300 μM), MNK2 against the eIF4E protein (0.5 mg/ml). PKBβ was assayed against the peptide […] (30 μM). TBK1 were assayed against ([…]) (300 μM). The substrates used for other protein kinases were described previously.^8,9
Unless stated otherwise, enzymes were diluted in 50 mM Tris/HCl pH 7.5, 0.1 mM EGTA, 1 mg/ml BSA, 0.1% (v/v) 2-mercaptoethanol and assayed in 50 mM Tris/HCl pH 7.5, 0.1 mM EGTA, 0.1% (v/v) 2-mercaptoethanol.

| IC50 [nM] | SMILES |
| --- | --- |
| < 100 | O=C(NCCCNc1nc(Nc2cccc(F)c2)ncc1C1CC1)C1CCCC1 [Example 22, Cyclopentanecarboxylic acid {3-[5-cyclopropyl-2-(3-fluoro-phenylamino)pyrimidin-4-ylamino]-propyl}-amide] |
| < 100 | O=C(CC1CC1)NCCCNc1nc(Nc2cccc(F)c2)ncc1C1CC1 [Example 24, 2-Cyclopropyl-N-{3-[5-cyclopropyl-2-(3-fluoro-phenylamino)-pyrimidin-4-ylamino]-propyl}-acetamide] |
| 100 to 1000 | O=C(NCCCNc1nc(Nc2cccc(F)c2)ncc1C1CC1)C1CC1 [Example 25, Cyclopropanecarboxylic acid {3-[5-cyclopropyl-2-(3-fluoro-phenylamino)-pyrimidin-4-ylamino]-propyl}-amide] |
| 100 to 1000 | O=C(NCCCNc1nc(Nc2cccc(F)c2)ncc1C1CC1)c1cccs1 [Example 26, Thiophene-2-carboxylic acid {3-[5-cyclopropyl-2-(3-fluoro-phenylamino)-pyrimidin-4-ylamino]-propyl}-amide] |
| 100 to 1000 | O=C(NCCCNc1nc(Nc2cccc(C(F)(F)F)c2)ncc1C1CC1)c1cccs1 [Example 27, Thiophene-2-carboxylic acid {3-[5-cyclopropyl-2-(3-trifluoromethyl-phenylamino)-pyrimidin-4-ylamino]-propyl}-amide] |
| < 100 | CC(=O)Nc1ccc(Nc2ncc(C3CC3)c(NCCCNC(=O)c3cccs3)n2)cc1 [Example 28, Thiophene-2-carboxylic acid {3-[2-(4-acetylamino-phenylamino)-5-cyclopropyl-pyrimidin-4-ylamino]-propyl}-amide. Hydrochloride salt] |
| 1000 to 10000 | O=C(NCCCNc1nc(Nc2cccc(O)c2)ncc1C1CC1)c1cccs1 [Example 29, Thiophene-2-carboxylic acid {3-[5-cyclopropyl-2-(3-hydroxy-phenylamino)-pyrimidin-4-ylamino]-propyl}-amide Trifluoroacetic acid salt] |
| 1000 to 10000 | Cc1ccc(Nc2ncc(C3CC3)c(NCCCNC(=O)c3cccs3)n2)cn1 [Example 30, Thiophene-2-carboxylic acid {3-[5-cyclopropyl-2-(6-methyl-pyridin-3-ylamino)-pyrimidin-4-ylamino]-propyl}-amide] |
| 1000 to 10000 | CC(C)(C)OC(=O)Nc1cccc(Nc2ncc(C3CC3)c(NCCCNC(=O)c3cccs3)n2)c1 [Example 31, [3-(5-Cyclopropyl-4-{3-[(thiophene-2-carbonyl)-amino]-propylamino}-pyrimidin-2-ylamino)-phenyl]-carbamic acid tert-butyl ester] |
| < 100 | CS(=O)(=O)Nc1cccc(Nc2ncc(C3CC3)c(NCCCNC(=O)c3cccs3)n2)c1 [Example 32, Thiophene-2-carboxylic acid {3-[5-cyclopropyl-2-(3-methanesulfonylamino-phenylamino)-pyrimidin-4-ylamino]-propyl}-amide trifluoroacetic acid salt] |
| 100 to 1000 | COC(=O)c1cccc(Nc2ncc(C3CC3)c(NCCCNC(=O)c3cccs3)n2)c1 [Example 33, 3-(5-Cyclopropyl-4-{3-[(thiophene-2-carbonyl)-amino]-propylamino}-pyrimidin-2-ylamino)-benzoic acid methyl ester trifluoroacetic acid salt] |
| 100 to 1000 | O=C(O)c1cccc(Nc2ncc(C3CC3)c(NCCCNC(=O)c3cccs3)n2)c1 [Example 34, 3-(5-Cyclopropyl-4-{3-[(thiophene-2-carbonyl)-amino]-propylamino}-pyrimidin-2-ylamino)-benzoic acid trifluoroacetic acid salt] |
| 100 to 1000 | O=C(NCCCNc1nc(Nc2cccc(OC(F)(F)F)c2)ncc1C1CC1)c1cccs1 [Example 35, Thiophene-2-carboxylic acid {3-[5-cyclopropyl-2-(3-trifluoromethoxy-phenylamino)-pyrimidin-4-ylamino]-propyl}-amide trifluoroacetic acid salt] |
| 100 to 1000 | NC(=O)c1cccc(Nc2ncc(C3CC3)c(NCCCNC(=O)c3cccs3)n2)c1 [Example 36, Thiophene-2-carboxylic acid {3-[2-(3-carbamoyl-phenylamino)-5-cyclopropyl-pyrimidin-4-ylamino]-propyl}-amide trifluoroacetic acid salt] |
| < 100 | O=C(NCCCNc1nc(Nc2ccc3ncsc3c2)ncc1C1CC1)c1cccs1 [Example 37, Thiophene-2-carboxylic acid {3-[2-(benzothiazol-6-ylamino)-5-cyclopropyl-pyrimidin-4-ylamino]-propyl}-amide. Hydrochloride salt] |
| 100 to 1000 | O=C1CCCN1CCCNc1nc(Nc2cccc(F)c2)ncc1C1CC1 [Example 38, 1-{3-[5-Cyclopropyl-2-(3-fluoro-phenylamino)-pyrimidin-4-ylamino]-propyl}-pyrrolidin-2-one] |
| 100 to 1000 | CC(=O)Nc1cccc(Nc2ncc(C3CC3)c(NCCCN3CCCC3=O)n2)c1 [Example 39, N-(3-{5-Cyclopropyl-4-[3-(2-oxo-pyrrolidin-1-yl)-propylamino]-pyrimidin-2-ylamino}-phenyl)-acetamide trifluoroacetate salt] |
| < 100 | O=C(NCCCNc1nc(Nc2ccc3ncsc3c2)ncc1C1CC1)C1CCC1 [Example 40, Cyclobutanecarboxylic acid {3-[2-(benzothiazol-6-ylamino)-5-cyclopropyl-pyrimidin-4-ylamino]-propyl}-amide. Hydrochloride salt] |
| < 100 | O=C(NCCCNc1nc(Nc2cccc(N3CCOCC3)c2)ncc1C1CC1)C1CCC1 [Example 41, Cyclobutanecarboxylic acid {3-[5-cyclopropyl-2-(3-morpholin-4-yl-phenylamino)-pyrimidin-4-ylamino]-propyl}-amide] |
| < 100 | O=C(NCCCNc1nc(Nc2cccc(Cn3ccnc3)c2)ncc1C1CC1)C1CCC1 [Example 42, Cyclobutanecarboxylic acid {3-[5-cyclopropyl-2-(3-imidazol-1-ylmethyl-phenylamino)-pyrimidin-4-ylamino]-propyl}-amide] |
| < 100 | CN1CCN(c2ccc(Nc3ncc(C4CC4)c(NCCCNC(=O)C4CCC4)n3)cn2)CC1 [Example 43, Cyclobutanecarboxylic acid (3-{5-cyclopropyl-2-[6-(4-methyl-piperazin-1-yl)-pyridin-3-ylamino]-pyrimidin-4-ylamino}-propyl)-amide] |
| 100 to 1000 | CN(C)c1cccc(Nc2ncc(C3CC3)c(NCCCNC(=O)c3cccs3)n2)c1 [Example 44, Thiophene-2-carboxylic acid {3-[5-cyclopropyl-2-(3-dimethylamino-phenylamino)-pyrimidin-4-ylamino]-propyl}-amide trifluoroacetic acid salt] |
| 100 to 1000 | CN1CCN(C(=O)c2cccc(Nc3ncc(C4CC4)c(NCCCNC(=O)c4cccs4)n3)c2)CC1 [Example 45, Thiophene-2-carboxylic acid (3-{5-cyclopropyl-2-[3-(4-methyl-piperazine-1-carbonyl)-phenylamino]-pyrimidin-4-ylamino}-propyl)-amide] |
